Experimental data from BindingDB's records for doi:10.1021/jm300847w (Amgen, 2012).

Assay: Inhibition of PI3Kdelta in B-cells by proliferation assay

| IC50 [nM] | SMILES |
| --- | --- |
| 0.5 | C[C@H](Nc1ncnc2nc[nH]c12)c1cc2cccc(Cl)c2nc1-c1cscn1 |
| 2 | Cc1cccc2nc(-c3ccccc3Cl)c(Cn3nc(C#N)c4c(N)ncnc43)nc12 |
